Experimental data as given in ChEMBL document CHEMBL5214990, “Novel Aryl Alkamidazole Derivatives as Multifunctional Antifungal Inhibitors: Design, Synthesis, and Biological Evaluation” (J Med Chem, 2022).
Values after ≈ are worked out from the molar mass of the structure shown. Active and inactive are the calls of the source. No cut-off for these calls is given here.

How the values were obtained:
Candida albicans [1] = experiment: Antifungal activity against fluconazole-resistant Candida albicans 901 assessed as inhibition of fungal growth measured after 72 hrs by CLSI based liquid medium dilution method; assay type: functional
[2] = Increase in intracellular ROS level in Cryptococcus neoformans assessed as fold increase in fluorescence intensity measured after 12 hrs by fluorescence microscopic analysis relative to control; assay type: functional
[3] = Increase in intracellular ROS level in Candida albicans assessed as fold increase in fluorescence intensity measured after 12 hrs by fluorescence microscopic analysis relative to control; assay type: functional
Candida albicans [4] = experiment: Antifungal activity against fluconazole-resistant Candida albicans CaR assessed as inhibition of fungal growth measured after 72 hrs by CLSI based liquid medium dilution method; assay type: functional
Candida albicans [5] = experiment: Induction of mitochondrial membrane depolarization in Candida albicans assessed as fungal cells with intact mitochondria measured after 24 hrs by JC-1 staining based flow cytometry (reference value: 95.9%); assay type: functional
Candida tropicalis = experiment: Antifungal activity against Candida tropicalis ATCC 1369 assessed as inhibition of fungal growth measured after 72 hrs by CLSI based liquid medium dilution method; assay type: functional
[6] = target: T1, Lanosterol 14-alpha demethylase (Candida albicans (strain SC5314 / ATCC MYA-2876) (Yeast), UniProt P10613); experiment: Inhibition of CYP51 in Candida albicans ATCC SC5314 assessed as reduction in substrate consumption using lanosterol as substrate preincubated for 30 mins followed by substrate addition and measured after 60 mins by HPLC analysis
T1 sequence (P10613 whole entry): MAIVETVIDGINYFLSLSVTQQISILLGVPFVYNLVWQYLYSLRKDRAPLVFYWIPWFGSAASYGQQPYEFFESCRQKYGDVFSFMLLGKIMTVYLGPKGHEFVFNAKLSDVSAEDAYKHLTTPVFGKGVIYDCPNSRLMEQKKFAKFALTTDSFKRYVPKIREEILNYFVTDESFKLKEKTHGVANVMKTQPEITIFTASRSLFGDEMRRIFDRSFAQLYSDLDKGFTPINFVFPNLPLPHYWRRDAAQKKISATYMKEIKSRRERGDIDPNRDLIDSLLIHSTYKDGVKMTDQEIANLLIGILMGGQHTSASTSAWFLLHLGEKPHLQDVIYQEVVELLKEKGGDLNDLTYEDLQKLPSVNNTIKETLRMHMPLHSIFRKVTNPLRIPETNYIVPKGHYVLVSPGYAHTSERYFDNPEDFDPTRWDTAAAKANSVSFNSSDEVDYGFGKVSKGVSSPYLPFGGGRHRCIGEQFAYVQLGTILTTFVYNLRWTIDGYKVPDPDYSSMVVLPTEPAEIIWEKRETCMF

Candida albicans [7] = experiment: Induction of apoptosis in Candida albicans assessed as late apoptotic cells measured after 24 hrs by Annexin V-FITC/PI staining based flow cytometry (reference value: 0.44%); assay type: functional
[8] = Drug uptake in Candida albicans ATCC SC5314 assessed as increase in red and green fluorescence intensity measured after 10 hrs by PI/Hoechst […] staining based fluorescence microscopy; assay type: ADME
Candida albicans [9] = experiment: Antifungal activity against fluconazole-resistant Candida albicans 904 assessed as inhibition of fungal growth measured after 72 hrs by CLSI based liquid medium dilution method; assay type: functional
Aspergillus fumigatus = experiment: Antifungal activity against Aspergillus fumigatus KM8001 assessed as inhibition of fungal growth measured after 72 hrs by CLSI based liquid medium dilution method; assay type: functional
Candida albicans [10] = experiment: Induction of apoptosis in Candida albicans assessed as early apoptotic cells measured after 24 hrs by Annexin V-FITC/PI staining based flow cytometry (reference value: 0.46%); assay type: functional
Candida albicans [11] = experiment: Antifungal activity against Candida albicans ATCC SC5314 assessed as inhibition of fungal growth measured after 72 hrs by CLSI based liquid medium dilution method; assay type: functional
[12] = target: T1, Lanosterol 14-alpha demethylase; experiment: Inhibition of CYP51 in Candida albicans ATCC SC5314 assessed as unknown sterol content at 4 ug/ml measured after 48 hrs by GC-MS analysis; design: scale not given: the % may be the effect or the level left; conditions: at 4 µg/mL
Pichia kudriavzevii = experiment: Antifungal activity against Candida krusei ATCC 6258 assessed as inhibition of fungal growth measured after 72 hrs by CLSI based liquid medium dilution method; assay type: functional
Candida albicans [13] = experiment: Antifungal activity against fluconazole-resistant Candida albicans 17# assessed as inhibition of fungal growth measured after 72 hrs by CLSI based liquid medium dilution method; assay type: functional
Candida albicans [14] = experiment: Induction of apoptosis in Candida albicans assessed as viable cells measured after 24 hrs by Annexin V-FITC/PI staining based flow cytometry (reference value: 95.7%); assay type: functional
Candida albicans [15] = experiment: Induction of mitochondrial membrane depolarization in Candida albicans assessed as fungal cells with depolarized mitochondria measured after 24 hrs by JC-1 staining based flow cytometry (reference value: 3.22%); assay type: functional
[16] = target: T1, Lanosterol 14-alpha demethylase; experiment: Inhibition of CYP51 in Candida albicans ATCC SC5314 assessed as lanosterol content at 4 ug/ml measured after 48 hrs by GC-MS analysis; design: scale not given: the % may be the effect or the level left; conditions: at 4 µg/mL
Candida albicans [17] = experiment: Induction of apoptosis in Candida albicans assessed as necrotic cells measured after 24 hrs by Annexin V-FITC/PI staining based flow cytometry (reference value: 3.37%); assay type: functional
Candida albicans [18] = experiment: Antifungal activity against Candida albicans assessed as inhibition of fungal cell proliferation by measuring decrease in fungal cell density measured after 24 hrs; assay type: functional, organism-based
Candida albicans [19] = experiment: Antifungal activity against fluconazole-resistant Candida albicans 632 assessed as inhibition of fungal growth measured after 72 hrs by CLSI based liquid medium dilution method; assay type: functional
[20] = target: T1, Lanosterol 14-alpha demethylase; experiment: Inhibition of CYP51 in Candida albicans ATCC SC5314 assessed as eburicol content at 4 ug/ml measured after 48 hrs by GC-MS analysis (reference value: 1.84%); design: scale not given: the % may be the effect or the level left; conditions: at 4 µg/mL
Cryptococcus neoformans = experiment: Antifungal activity against Cryptococcus neoformans assessed as inhibition of fungal growth measured after 72 hrs by CLSI based liquid medium dilution method; assay type: functional
[21] = target: T1, Lanosterol 14-alpha demethylase; experiment: Inhibition of CYP51 in Candida albicans ATCC SC5314 assessed as ergosterol content at 4 ug/ml measured after 48 hrs by GC-MS analysis (reference value: 95.61%); design: scale not given: the % may be the effect or the level left; conditions: at 4 µg/mL
[22] = target: T2, Prostaglandin G/H synthase 2 (Homo sapiens, UniProt P35354); experiment: Inhibition of COX2 (unknown origin) assessed as reduction in PGF2alpha content using arachidonic acid as substrate preincubated for 10 mins followed by substrate addition and measured after 2 mins by enzyme immunoassay
T2 sequence (P35354 whole entry): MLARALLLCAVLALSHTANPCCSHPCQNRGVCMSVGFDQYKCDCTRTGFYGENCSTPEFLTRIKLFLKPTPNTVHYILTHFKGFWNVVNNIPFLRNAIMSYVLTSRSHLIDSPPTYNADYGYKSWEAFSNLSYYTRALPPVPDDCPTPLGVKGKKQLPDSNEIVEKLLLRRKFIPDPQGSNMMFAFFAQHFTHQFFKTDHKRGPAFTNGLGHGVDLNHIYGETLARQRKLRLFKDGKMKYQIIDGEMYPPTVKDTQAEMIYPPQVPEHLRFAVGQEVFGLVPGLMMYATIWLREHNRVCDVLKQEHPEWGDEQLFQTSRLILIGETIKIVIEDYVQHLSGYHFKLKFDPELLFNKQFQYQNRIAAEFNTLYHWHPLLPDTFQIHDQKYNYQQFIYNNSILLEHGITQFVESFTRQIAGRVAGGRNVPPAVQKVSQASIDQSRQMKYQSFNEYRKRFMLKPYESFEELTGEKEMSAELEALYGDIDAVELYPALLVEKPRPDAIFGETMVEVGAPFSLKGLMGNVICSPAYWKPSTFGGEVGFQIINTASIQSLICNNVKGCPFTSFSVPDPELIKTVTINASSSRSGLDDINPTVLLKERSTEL

## C[C@H](C(=O)OC(Cn1ccnc1)c1ccc(F)cc1)c1ccc(-c2ccccc2)c(F)c1 (stereo partly specified)
Candida albicans [1]
  MIC50: 2 µg/mL (≈ 4.62 µM)
[2]
  fold change (FC): 4
[3]
  fold change (FC): 4
Candida albicans [4]
  MIC50: 2 µg/mL (≈ 4.62 µM)
Candida albicans [5]
  Activity: 46.6%
Candida tropicalis
  MIC50: 0.25 µg/mL (≈ 0.578 µM)
[6]
  IC50: 350 nM
Candida albicans [7]
  Activity: 1.06%
[8]
  Drug uptake: Active
Candida albicans [9]
  MIC50: 2 µg/mL (≈ 4.62 µM)
Aspergillus fumigatus
  MIC50: 2 µg/mL (≈ 4.62 µM)
Candida albicans [10]
  Activity: 0.086%
Candida albicans [11]
  MIC50: 0.25 µg/mL (≈ 0.578 µM)
[12]
  Activity: 5.06%
Pichia kudriavzevii
  MIC50: 0.125 µg/mL (≈ 0.289 µM)
Candida albicans [13]
  MIC50: 4 µg/mL (≈ 9.25 µM)
Candida albicans [14]
  Activity: 66.2%
Candida albicans [15]
  Activity: 52.9%
[16]
  Activity: 33.52%
Candida albicans [17]
  Activity: 32.7%
Candida albicans [18]
  Activity: Active
Candida albicans [19]
  MIC50: 4 µg/mL (≈ 9.25 µM)
[20]
  Activity: 39.58%
Cryptococcus neoformans
  MIC50: 0.5 µg/mL (≈ 1.16 µM)
[21]
  Activity: 21.84%
[22]
  IC50: 3.76 µM
